Read-outs that look alike come from different tables or passages of the source.
Experiments:
[1] = test system: TGF-β2 signaling pathway; experiment: Western blotting for α-SMA and fibronectin in TGF-β2-treated fibroblasts; type: cell-based, rabbit; details: incubated 48 to 72 hours; for band intensity for fibronectin and α-SMA compared with samples not treated with the inhibitors: more pronounced with higher concentration; for fibronectin and α-SMA protein expression induced by TGF-B2: rabbit subconjunctival fibroblasts, 2 ng/ml TGF-β2
Method: (§1) Sample fibroblasts were obtained from New Zealand white rabbit eyes. The fibroblasts were derived from the subconjunctival tissues isolated from the eyes of the subjects. The third to fifth passages of cells were maintained in 25 cm^2 flasks using 3 ml of medium composed of Eagle's minimal essential medium, 10% fetal bovine serum, 5% calf serum, essential and nonessential aminoacids, and antibiotics. When the cells reached confluence, they were trypsinized and passaged.
(§2) The fibroblast cultures in 6-well plates were pre-treated with 2 ml of medium including ALK-5 inhibitors at various concentrations, 0.03, 0.1, […], 1.0, 3.0, and 10.0 μM, for one hour, and were additionally treated with
(§3) 2 ng/ml of TGF-β2 (R&D Systems, Minneapolis, Minn.) for up to 72 hours.
To test for fibronectin and α-SMA protein expression after the treatment with the respective inhibitors, rabbit subconjunctival fibroblasts, as prepared in samples 1-16, were incubated for 48 to 72 hours. […] Band intensity for both proteins was reduced in A-83-01 and SB-431542 treated samples compared with the bands of those samples not treated with the inhibitors. The reduction in protein levels is more pronounced with a higher concentration of the inhibitors. The blots were also probed for β-actin to control for equal protein loading.
Proteins in the cell lysates (20 μg/lane) were resolved on a 10% sodium dodecyl sulfate (SDS)-polyacrylamide gel. The proteins were transferred to nitrocellulose. After blocking with 1% bovine serum albumin, the membranes were probed with monoclonal mouse anti-α-SMA (1:9,000) followed by HRP-conjugated goat anti-mouse IgG (1:150,000; Jackson), or monoclonal mouse anti-fibronectin (1:1,000) followed by HRP-conjugated goat anti-mouse IgG (1:10,000). Signals were detected by enhanced chemiluminescense.

[2] = test system: cultured rabbit subconjunctival fibroblasts; experiment: TGF-β2 activity related to wound healing in cultured fibroblasts (overall conclusion); type: cell-based; details: for cell toxicity: cell cultures prepared with either inhibitor; for TGF-β2 activity related to wound healing: cultured rabbit subconjunctival fibroblasts
Method: as §1, §2, §3
Thus, these inhibitors may be used as ocular anti-scarring agents, especially for glaucoma filtration surgery.

[3] = test system: rabbit fibroblasts; experiment: Fibroblast morphology by phase contrast microscopy; details: 5 ng/ml TGF-β2; for TGF-β2-induced morphologic change (myofibroblast-like appearance): sample 6 (A-83-01 3.0 μM), sample 14 (SB-431542 10.0 μM)
Method: In another example, rabbit fibroblasts were prepared as in samples 6, 14, 15, and 16 except that 5 ng/ml of TGF-β2 was added to the samples instead of 2 ng/ml.

[4] = test system: TGF-β2-induced proteins; experiment: Immunocytofluorescence microscopy for CTGF, fibronectin and α-SMA; details: for staining intensity of TGF-β2-induced proteins (CTGF, α-SMA, fibronectin): samples 5-6 (A-83-01 1.0, 3.0 μM) and 13-14 (SB-431542 3.0, 10.0 μM), 2 ng/ml TGF-β2, 72 hours
Method: (§4) In another example, subconjunctival fibroblasts were cultured on 8-well chamber slides. The samples were prepared as in samples 5-6 and 13-16 and incubated for 72 hours. After inhibitor treatment, the fibroblast cultures were fixed with 4% paraformaldehyde or with ice-cold methanol for Alexa Fluor or FITC staining, respectively. After permeabilization, the cells cultures were incubated with polyclonal goat anti-CTGF (1:50, Santa Cruz) followed by Alexa Fluor donkey anti-goat IgG (10 μg/mL, Invitrogen), monoclonal mouse anti-fibronectin (10 μg/mL, Invitrogen) or monoclonal mouse anti-α-SMA (1:400, Sigma) followed by FITC goat anti-mouse IgG (1:100, Jackson ImmunoResearch). The cell cultures were mounted with aqueous mounting media with DAPI and viewed by fluoresence microscopy.
Nuclei were stained with DAPI (blue).

[5] = test system: TGF-β2-induced proteins
Method: as §4
Nuclei were stained with DAPI (blue).

Row | SMILES | band intensity for fibronectin and α-SMA compared with samples not treated with the inhibitors [1] | fibronectin and α-SMA protein expression induced by TGF-B2 [1] | cell toxicity [2] | TGF-β2 activity related to wound healing [2] | cell death ([3]; sample 6 (3.0 μM), sample 14 (10.0 μM)) | TGF-β2-induced morphologic change (myofibroblast-like appearance) [3] | staining intensity of TGF-β2-induced proteins (CTGF, α-SMA, fibronectin) [4] | cell death ([4]; samples 5-6 and 13-14, 72 hours) | cell death [5]
1 | Cc1cccc(-c2nn(C(=S)Nc3ccccc3)cc2-c2ccnc3ccccc23)n1 [A-83-01] | reduced | effectively inhibited | No obvious cell toxicity | effectively block | No obvious cell death | seemed to be averted | greatly reduced | No obvious cell death | 
2 | NC(=O)c1ccc(-c2nc(-c3ccc4c(c3)OCO4)c(-c3ccccn3)[nH]2)cc1 [SB-431542] | reduced | effectively inhibited | No obvious cell toxicity | effectively block |  | seemed to be averted | greatly reduced |  | No obvious cell death
